# Experimental data: US20040101503A1, “Use of protectin activator to enhance the skin's resistance, composition comprising such activators and selection method” (SOCIETE L'OREAL S.A., priority 2002, published 2004)
# Tested on: messenger RNAs coding for the protein CD59
# Assay: cDNA array of CD59 mRNA on standard human dermal fibroblasts
# Type: cell-based
# Conditions: for Comparision of the Control Population with the Population Exposed to the Extract (in %) / Fibroblasts Exposed to the Extract (RE): 15 micrograms/ml; for Comparision of the Control Population with the Population Exposed to the Extract (in %): control = 100; for Fibroblasts Exposed to the Extract (RE): control fibroblasts 6.1 RE
# Experimental: The methodology used is that recommended by Clontech (Palo Alto, USA). […] The total RNA solutions were treated with DNAse I in order to remove any trace of contaminant DNA, in accordance with the supplier's recommendations. The quality of the RNA was then verified on agarose gel and the RNA solutions were adjusted to 1 μg/ml.
# The next step was the purification of the messenger RNAs (mRNA) by hybridization of the poly(A) ends of the mRNAs using biotinylated oligo(dT) primers and selective capture on streptavidin beads, in accordance with the Atlaspure protocol (Clontech). ^33P-labeled DNA probes were produced by reverse transcription of the niRNAs bound to poly(dT) beads, using a pool of specific primers of the immobilized sequences on membranes (arrays), in the presence of (α^33P)-dATP. This step used the reagents and the protocol recommended by Clontech. The labeled probes were purified by chromatography on an exclusion column, and the quality and equivalence of the labeled probes was evaluated by liquid scintillation counting.
# cDNA array membranes were pretreated and then the cDNAs immobilized on each membrane were hybridized (68° C., overnight) with the corresponding labeled probes. The filters were subsequently washed and placed in individual plastic bags for analysis. Analysis took place by direct quantification of the radioactivity of the spots using a Cyclone phosphoimager (Packard). The results were expressed in relative expression units (RE, radioactivity of the spot corresponding to each gene, corrected for the background noise and for the differences in intensity of labeling of the probes).
# The study was carried out on standard human fibroblasts. Dermal fibroblasts were cultivated in DMEM (Life Technology, ref. 21969035) containing L-glutamine (2 mM, Life Technology, ref. 25030024), 50 IU/ml penicillin and 50 μg/ml streptomycin (Life Technology, ref. 15070063) and 1% foetal calf serum (v/v, Life Technology, ref. 10106151).
# A fraction of a root extract of Panax notoginseng (San Qi) containing only the saponins was tested for its activity in accordance with the protocol described in the foregoing example by the technique of cDNA array on fibroblasts. The two principal saponins from the extract were also tested.
# All the products were tested at a final concentration of 15 micrograms/ml
compound,measurement,value
"CC(C)=CCC[C@](C)(O[C@@H]1O[C@H](CO[C@@H]2O[C@H](CO)[C@@H](O)[C@H](O)[C@H]2O)[C@@H](O)[C@H](O)[C@H]1O)[C@H]1CC[C@]2(C)[C@@H]1[C@H](O)C[C@@H]1[C@@]3(C)CC[C@H](O[C@@H]4O[C@H](CO)[C@@H](O)[C@H](O)[C@H]4O[C@@H]4O[C@H](CO)[C@@H](O)[C@H](O)[C@H]4O)C(C)(C)[C@@H]3CC[C@]12C [Rb1, Rb1 ginsenoside]",effect on expression of messenger RNAs coding for the protein CD59 (in words),significantly modify
same,Comparision of the Control Population with the Population Exposed to the Extract (in %),277%
same,Fibroblasts Exposed to the Extract (RE),13.8 RE
"CC(C)=CCC[C@](C)(O[C@@H]1O[C@H](CO)[C@@H](O)[C@H](O)[C@H]1O)[C@H]1CC[C@]2(C)[C@@H]1[C@H](O)C[C@@H]1[C@@]3(C)CC[C@H](O)C(C)(C)[C@@H]3[C@@H](O[C@@H]3O[C@H](CO)[C@@H](O)[C@H](O)[C@H]3O)C[C@]12C [Rg1, Rg1 ginsenoside]",effect on expression of messenger RNAs coding for the protein CD59 (in words),significantly modify
same,Comparision of the Control Population with the Population Exposed to the Extract (in %),277%
same,Fibroblasts Exposed to the Extract (RE),16.8 RE
